# Where a name gives a salt, the structure may show the parent alone.
# Assays:
# [1] = Bupivacaine PK, nonlinear mixed-effect modeling (population PK method); assay type: in vivo, human
# Procedure: The sample size was determined on the basis of the number of patients needed to characterize the PK profile of liposomal bupivacaine in pediatric patients per FDA requirements. Authorized staff or a designee obtained the randomization assignment once eligible patients were at the clinic site for surgery. Descriptive statistics (number, mean, standard deviation [SD], median, minimum, maximum) were calculated for continuous data; tabulations (number and percentage) were calculated for categorial data. PK analysis included pediatric patients who underwent surgery, received treatment, and provided at least 1 blood sample for quantifiable plasma concentration measurement. PK measures were assessed by noncompartmental analysis. A separate PK analysis was conducted using nonlinear mixed-effect modeling (population PK method) with the spine surgery cohorts combined. The safety analysis included pediatric patients who underwent surgery and received treatment. The incidence of patients reporting TEAEs was tabulated by the number and percentage of patients reporting the TEAE. All analyses and tabulations were performed using SAS, version 9.4; PK descriptive statistics were performed using Sigmastat and Microsoft Excel.
# Across age groups, trends in PK parameters between liposomal bupivacaine and bupivacaine HCl using the population PK model were consistent with those observed with noncompartmental analysis (Table 4). The PK of bupivacaine in both age groups and surgery cohorts were adequately described by a linear 2-compartment PK model with fast and slow absorption routes for liposomal bupivacaine. For each treatment (liposomal bupivacaine or bupivacaine HCl), the Cmax in 12-year-old patients was predicted to be similar to that in 17-year-old patients in pediatric patients undergoing spine surgery.
# [2] = Safety: treatment-emergent adverse events up to 30 days after surgery (PLAY trial); assay type: in vivo; conditions: age group 1 (12 to <17 years), spine surgery; liposomal bupivacaine 4 mg/kg or bupivacaine HCl 2 mg/kg
# Procedure: • Methods: A multicenter, open-label, phase 3, randomized trial (PLAY; NCT03682302) was conducted, with primary and secondary objectives evaluating the pharmacokinetics and safety, respectively, of multivesicular liposomal bupivacaine (EXPAREL®) in pediatric patients (age group 1: 12 to <17 years; age group 2: 6 to <12 years). The hypothesis was that the pharmacokinetics and safety profiles would support the safety of EXPAREL® (also referred to herein as “multivesicular liposomal bupivacaine” or “liposomal bupivacaine”) in pediatric patients. Age group 1 received 4 mg/kg liposomal bupivacaine or 2 mg/kg bupivacaine hydrochloride (HCl) at the end of spine surgery; all patients in age group 2 received liposomal bupivacaine (4 mg/kg) at the end of spine or cardiac surgery. […]
# The sample size was determined on the basis of the number of patients needed to characterize the PK profile of liposomal bupivacaine in pediatric patients per FDA requirements. […] Descriptive statistics (number, mean, standard deviation [SD], median, minimum, maximum) were calculated for continuous data; tabulations (number and percentage) were calculated for categorial data. PK analysis included pediatric patients who underwent surgery, received treatment, and provided at least 1 blood sample for quantifiable plasma concentration measurement. PK measures were assessed by noncompartmental analysis. […]
# [3] = Bupivacaine PK after local infiltration, noncompartmental analysis (PLAY phase 3 trial, NCT03682302); set-up: species or system human; conditions: in vivo; for AUC(0-inf): AUC0-∞
# Procedure: • Methods: A multicenter, open-label, phase 3, randomized trial (PLAY; NCT03682302) was conducted, with primary and secondary objectives evaluating the pharmacokinetics and safety, respectively, of multivesicular liposomal bupivacaine (EXPAREL®) in pediatric patients (age group 1: 12 to <17 years; age group 2: 6 to <12 years). The hypothesis was that the pharmacokinetics and safety profiles would support the safety of EXPAREL® (also referred to herein as “multivesicular liposomal bupivacaine” or “liposomal bupivacaine”) in pediatric patients. Age group 1 received 4 mg/kg liposomal bupivacaine or 2 mg/kg bupivacaine hydrochloride (HCl) at the end of spine surgery; all patients in age group 2 received liposomal bupivacaine (4 mg/kg) at the end of spine or cardiac surgery. […] In age group 2, 100% and 31% of patients undergoing spine (n=5) and cardiac (n=9) surgery experienced TEAEs, respectively. TEAEs were generally mild or moderate, with no discontinuations due to TEAEs or deaths. […] TEAEs were mild to moderate, supporting the safety of liposomal bupivacaine in pediatric patients undergoing spine or cardiac surgery. Study Design
# This study was performed in 2 parts. Part 1 evaluated PK and safety of liposomal bupivacaine. Part 2 followed part 1 and further evaluated the safety of liposomal bupivacaine. For both parts of the study, pediatric patients aged 12 to <17 years (age group 1) were analyzed separately from patients aged 6 to <12 years (age group 2), per FDA guidance for safety studies in pediatric patients.^25
# In age group 1, eligible pediatric patients aged 12 to <17 years undergoing spine surgery were randomized 1:1 to receive a single dose of either liposomal bupivacaine (4 mg/kg up to 266 mg) diluted with normal saline, or bupivacaine HCl (2 mg/kg up to 175 mg) via local infiltration at the end of surgery. Randomization was performed with a centralized randomization system using a unique subject identifier and unique random code identifier. In age group 2, all eligible pediatric patients aged 6 to <12 years of age undergoing either spine or cardiac surgery received liposomal bupivacaine (4 mg/kg up to 266 mg) via local infiltration at the end of surgery. Dosing for both age groups was weight based. Guidelines and training were shared with the participating surgeons to ensure reliability in infiltration techniques.
# Across age groups and surgical procedures, surgeons administered liposomal bupivacaine or bupivacaine HCl via local infiltration prior to wound closure, with liposomal bupivacaine and bupivacaine HCl administered in small increments into the deep and superficial layers along the entire length of the incision site to ensure uniform drug distribution. Use of intraoperative opioids, acetaminophen, or other nonsteroidal anti-inflammatory drugs as well as postsurgical pain medication in cases of insufficient analgesia during and after surgery was permitted in accordance with the standard of care at each site. Use of local anesthetics within 96 hours after administration of liposomal bupivacaine was prohibited.
# The primary objective was to analyze PK of liposomal bupivacaine, including area under the plasma concentration-time curve (AUC), maximum plasma concentration (Cmax), time to Cmax (Tmax), apparent elimination half-life (t1/2), apparent clearance (CL/F), and apparent volume of distribution (Vd/F). To assess plasma concentration of bupivacaine, 8 blood samples were collected up to 42-60 hours after spine surgery and up to 64-72 hours after cardiac surgery in each patient. For both procedures, the first 4 samples were collected ˜15, ˜30, ˜45, and 60-75 minutes after liposomal bupivacaine administration. The last 4 samples were collected in time windows rather than precise time points. For spine surgery, sample windows were 2-3,10-18, 24-36, and 42-60 hours after receiving liposomal bupivacaine or bupivacaine HCl. […]
structure (smiles),measurement,setting,value
"CCCCN1CCCCC1C(=O)Nc1c(C)cccc1C (stereo not drawn) [bupivacaine HCl, bupivacaine hydrochloride]",AUC(0-inf),"[1]; human, plasma, population PK method, spine surgery: liposomal bupivacaine 4 mg/kg (6 to <17 y, n = 18) or bupivacaine HCl 2 mg/kg (12 to <17 y, n = 15), read-out: AUC0-∞, geometric mean",6400 ng·h/mL
same,Cmax,"[1]; human, plasma, population PK method, spine surgery: liposomal bupivacaine 4 mg/kg (6 to <17 y, n = 18) or bupivacaine HCl 2 mg/kg (12 to <17 y, n = 15), read-out: Early Cmax, geometric mean",444 ng/mL
same,Vd/F,"[1]; human, plasma, population PK method, spine surgery: liposomal bupivacaine 4 mg/kg (6 to <17 y, n = 18) or bupivacaine HCl 2 mg/kg (12 to <17 y, n = 15), read-out: Vss/F, geometric mean",153 L
same,half-life,"[1]; human, plasma, population PK method, spine surgery: liposomal bupivacaine 4 mg/kg (6 to <17 y, n = 18) or bupivacaine HCl 2 mg/kg (12 to <17 y, n = 15), read-out: t1/2, geometric mean (converted)",6.5 h
same,"CL/F, geometric mean","[1]; population PK method, spine surgery: liposomal bupivacaine 4 mg/kg (6 to <17 y, n = 18) or bupivacaine HCl 2 mg/kg (12 to <17 y, n = 15)",16.8 L/h
same,Median predicted early Tmax,"[1]; population PK model, spine surgery",0.667 h
same,discontinuations due to TEAEs or on-study deaths,[2],no discontinuations due to TEAEs or on-study deaths
same,Tmax,[3]; human,~1 h
same,Tmax,"[3]; human, 2 mg/kg",0.9 h
same,AUC(0-inf),"[3]; human, 2 mg/kg, Geometric mean",5060 ng·h/mL
same,AUC(0-inf),"[3]; human, 2 mg/kg, Mean",5710 ng·h/mL
same,Vd/F,"[3]; human, 2 mg/kg, Geometric mean",201 L
same,Vd/F,"[3]; human, 2 mg/kg, Mean",227 L
same,half-life,"[3]; human, 2 mg/kg, t1/2, Geometric mean",7.4 h
same,half-life,"[3]; human, 2 mg/kg, t1/2, Mean",8.4 h
same,Cmax,"[3]; human, age group 1 (12 to <17 years), spine surgery, local infiltration, liposomal bupivacaine 4 mg/kg (n = 15) or bupivacaine HCl 2 mg/kg (n = 15), read-out: Cmax, Geometric mean",488 ng/mL
same,"CL/F, Mean",[3],20.5 L/h
same,"CL/F, geometric mean",[3],18.9 L/h

# From US11931459B2, “Treatment of pain in pediatric patients by administration of sustained-release liposomal anesthetic compositions” (Pacira Pharmaceuticals, Inc., priority 2021, dated 2024)
